The record followed here is patent EP4800015A1, “AZABICYCLO DERIVATIVE AND PREPARATION METHOD THEREFOR, AND USE” (Zhejiang Hisun Pharmaceutical Co., Ltd., priority 2023, dated 2025).

The test system of one test is SW48 cells. As to the kind of experiment: Inhibition of SW48 cell proliferation (CellTiter-Glo). The format is cell-based. The settings on record: Homo sapiens; SW48 cells (MSI-H), 120 hours. The gist of the method:
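SW48 (MSI-H) cells in L-15 with 10% FBS were seeded at 500 per well, cultured overnight at 37 °C, then exposed to compound at final concentrations of 10000 nM to 1.52 nM for 120 h. Viability was read by CellTiter-Glo luminescence, with inhibition relative to 0.1% DMSO. IC50 from nonlinear regression of log concentration versus inhibition.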
A general note: Cellular ATP, detected with luciferase, serves as a proxy for viable cell number.

Another test concerns RL95-2 cells. As to the kind of experiment: Inhibition of RL95-2 cell proliferation (CellTiter-Glo). The format is cell-based. The settings on record: Homo sapiens; RL95-2 cells (MSI-H), 120 hours. The gist of the method:
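Proliferation IC50 derived by nonlinear regression of % inhibition against log concentration, with 0.1% DMSO wells as reference. CellTiter-Glo luminescence was read after 120 h of compound exposure (10000 nM down to 1.52 nM final) at 37 °C. MSI-H RL95-2 cells seeded at 500/well in DMEM/F12 with 10% FBS the day before.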

A further test has as its target T1, recombinant human WRN (Homo sapiens, UniProt Q14191).
T1 construct: purchased BPS 101264
As to the kind of experiment: Inhibition of WRN enzyme activity (ATPase), ADP-Glo Kinase Assay. The format is biochemical. Particulars: WRN protein 5 nM, Flap 0.1 nM, ATP 30 µM; read-out: IC50. Put shortly:
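ATPase activity was measured by ADP-Glo luminescence after a 10-min room-temperature reaction with 30 µM ATP and 0.1 nM Flap26 oligonucleotide substrate. The 5 nM WRN had first been exposed to compound (0.004–1000 nM) for 15 min in pH 7.5 Tris buffer with 2 mM MgCl2. IC50 values came from log-concentration regression against the DMSO control.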
(ADP-Glo turns the ADP formed in a reaction into a luminescent signal.)

Structures are written as SMILES.

T1 sequence (Q14191 whole entry): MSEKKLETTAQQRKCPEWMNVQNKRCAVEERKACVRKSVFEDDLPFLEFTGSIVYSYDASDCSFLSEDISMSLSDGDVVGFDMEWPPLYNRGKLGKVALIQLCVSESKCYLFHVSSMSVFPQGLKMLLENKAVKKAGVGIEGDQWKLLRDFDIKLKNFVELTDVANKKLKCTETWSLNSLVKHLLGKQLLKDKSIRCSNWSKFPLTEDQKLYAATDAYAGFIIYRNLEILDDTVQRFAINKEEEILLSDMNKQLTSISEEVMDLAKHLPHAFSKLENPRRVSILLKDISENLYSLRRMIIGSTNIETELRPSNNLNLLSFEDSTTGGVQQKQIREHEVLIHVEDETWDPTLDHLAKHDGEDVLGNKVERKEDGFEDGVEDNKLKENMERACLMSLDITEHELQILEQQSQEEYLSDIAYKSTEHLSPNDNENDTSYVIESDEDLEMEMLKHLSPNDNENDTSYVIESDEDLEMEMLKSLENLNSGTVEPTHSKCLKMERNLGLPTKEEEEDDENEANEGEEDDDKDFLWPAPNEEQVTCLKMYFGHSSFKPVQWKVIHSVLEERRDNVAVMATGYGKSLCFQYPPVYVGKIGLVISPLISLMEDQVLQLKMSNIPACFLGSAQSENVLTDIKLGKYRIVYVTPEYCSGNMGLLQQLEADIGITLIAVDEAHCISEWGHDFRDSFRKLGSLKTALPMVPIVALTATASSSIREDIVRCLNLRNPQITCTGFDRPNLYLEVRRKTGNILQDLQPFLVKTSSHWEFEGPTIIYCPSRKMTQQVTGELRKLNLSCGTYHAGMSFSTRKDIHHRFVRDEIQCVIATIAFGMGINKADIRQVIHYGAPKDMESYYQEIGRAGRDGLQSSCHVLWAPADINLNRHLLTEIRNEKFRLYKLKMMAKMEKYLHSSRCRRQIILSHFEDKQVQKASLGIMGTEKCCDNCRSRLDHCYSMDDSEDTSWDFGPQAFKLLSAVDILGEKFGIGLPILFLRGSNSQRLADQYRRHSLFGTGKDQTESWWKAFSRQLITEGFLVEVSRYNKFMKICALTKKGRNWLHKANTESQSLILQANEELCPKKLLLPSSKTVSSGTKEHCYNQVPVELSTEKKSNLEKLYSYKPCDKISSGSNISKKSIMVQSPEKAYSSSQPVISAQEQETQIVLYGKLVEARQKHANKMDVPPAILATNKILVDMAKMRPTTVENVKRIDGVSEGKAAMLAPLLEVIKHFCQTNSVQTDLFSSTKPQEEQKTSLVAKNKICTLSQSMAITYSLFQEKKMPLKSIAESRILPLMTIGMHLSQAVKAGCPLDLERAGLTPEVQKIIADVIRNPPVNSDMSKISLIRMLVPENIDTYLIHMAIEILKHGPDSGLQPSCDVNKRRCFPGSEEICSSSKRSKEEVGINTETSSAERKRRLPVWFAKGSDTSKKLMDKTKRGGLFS

By IC50 is commonly meant the midpoint of a concentration-inhibition curve. In the case of `CCc1c(N2CCN(C(=O)c3ncccc3O)CC2)c(=O)n2nc(C3=CC4CC(O)CC4C3)nc2n1CC(=O)Nc1ccc(C(F)(F)F)cc1Cl` (stereo not drawn) [Example 121, N-(2-chloro-4-(trifluoromethyl)phenyl)-2-(5-ethyl-2-(5-hydroxy-1,3a,4,5,6,6a-hexahydropentalen-2-yl)-6-(4-(3-hydroxypicolinoyl)piperazin-1-yl)-7-oxo-[1,2,4]triazolo[1,5-a]pyrimidin-4(7H)-yl) acetamide], the IC50 in the test with SW48 cells, in the test on RL95-2 cells and on recombinant human WRN was 1 to 100 nM in each case.

As to `CCc1c(N2CCN(C(=O)c3nc(C)ncc3O)CC2)c(=O)n2nc(-c3ccc4c(c3)CCO4)nc2n1CC(=O)Nc1ccc(C(F)(F)F)cc1Cl` [Example 150, N-(2-chloro-4-(trifluoromethyl)phenyl)-2-(2-(2,3-dihydrobenzofuran-5-yl)-5-ethyl-6-(4-(5-hydroxy-2-methylpyrimidine-4-carbonyl)piperazin-1-yl)-7-oxo-[1,2,4]triazolo[1,5-a]pyrimidin-4(7H)-yl)acetamide], the IC50 with SW48 cells, in the test with RL95-2 cells and at recombinant human WRN was 1 to 100 nM each time.

For the compound `CCc1c(N2CCN(C(=O)c3ncnc(C)c3O)CC2)c(=O)n2nc(-c3ccc4c(c3)CCO4)nc2n1CC(=O)Nc1ccc(S(F)(F)(F)(F)F)cc1C` [Example 88, 2-(2-(2,3-dihydrobenzofuran-5-yl)-5-ethyl-6-(4-(5-hydroxy-6-methylpyrimidine-4-carbonyl)piperazin-1-yl)-7-oxo-[1,2,4]triazolo[1,5-a]pyrimidin-4(7H)-yl)-N-(2-methyl-4-(pentafluoro-λ^6-sulfaneyl)phenyl)acetamide], the IC50 in the test with SW48 cells, in the test on RL95-2 cells and at recombinant human WRN was 1 to 100 nM in each case.

Consider `CCc1c(N2CCN(C(=O)c3ncnc(C)c3O)CC2)c(=O)n2nc(-c3cc4cnccc4s3)nc2n1CC(=O)Nc1ccc(C(F)(F)F)cc1Cl` [Example 153, N-(2-chloro-4-(trifluoromethyl)phenyl)-2-(5-ethyl-6-(4-(5-hydroxy-6-methylpyrimidine-4-carbonyl)piperazin-1-yl)-7-oxo-2-(thieno[3,2-c]pyridin-2-yl)-[1,2,4]triazolo[1,5-a]pyrimidin-4(7H)-yl)a cetamide], for which the IC50 in the test with SW48 cells, in the test with RL95-2 cells and on recombinant human WRN was 1 to 100 nM throughout.

Consider `CCc1c(N2CCN(C(=O)c3ncnc(C)c3O)CC2)c(=O)n2nc(C3=CCCCOC3)nc2n1CC(=O)Nc1ccc(S(F)(F)(F)(F)F)cc1C` [Example 158, 2-(5-ethyl-6-(4-(5-hydroxy-6-methylpyrimidine-4-carbonyl)piperazin-1-yl)-7-oxo-2-(2,5,6,7-tetra hydrooxepin-3-yl)-[1,2,4]triazolo[1,5-a]pyrimidin-4(7H)-yl)-N-(2-methyl-4-(pentafluoro-λ^6-sulfaneyl)phenyl)acetamide], for which the IC50 in the test with SW48 cells, in the test with RL95-2 cells and at recombinant human WRN was 1 to 100 nM in each case.

On to `CCc1c(N2CCN(C(=O)c3ncnc(C)c3O)CC2)c(=O)n2nc(C3=CC4CC4C3)nc2n1CC(=O)Nc1ccc(C(F)(F)F)cc1Cl` (stereo not drawn) [Example 18, 2-(2-(bicyclo[3.1.0]hex-2-en-3-yl)-5-ethyl-6-(4-(5-hydroxy-6-methylpyrimidine-4-carbonyl)piperazin-1-yl)-7-oxo-[1,2,4]triazolo[1,5-a]pyrimidin-4(7H)-yl)-N-(2-chloro-4-(trifluoromethyl)phenyl)acetamide], for which the IC50 in the test with SW48 cells, in the test with RL95-2 cells and on recombinant human WRN was 1 to 100 nM each time.

In the case of `CCc1c(N2CCN(C(=O)c3ncnc(C)c3O)CC2)c(=O)n2nc(C3=CCCCOC3)nc2n1CC(=O)Nc1ccc(S(F)(F)(F)(F)F)cc1Cl` [Example 84, N-(2-chloro-4-(pentafluoro-λ^6-sulfaneyl)phenyl)-2-(5-ethyl-6-(4-(5-hydroxy-6-methylpyrimidine-4-carbonyl)piperazin-1-yl)-7-oxo-2-(2,5,6,7-tetrahydrooxepin-3-yl)-[1,2,4]triazolo[1,5-a]pyrimidin-4(7H)-yl)acetamide], the IC50 with SW48 cells, with RL95-2 cells and at recombinant human WRN was 1 to 100 nM each time.

On to `CCc1c(N2CCN(C(=O)c3ncnc(C)c3O)CC2)c(=O)n2nc(-c3ccc4nc(N)oc4c3)nc2n1CC(=O)Nc1ccc(C(F)(F)F)cc1Cl` [Example 140, 2-(2-(2-aminobenzo[d]oxazol-6-yl)-5-ethyl-6-(4-(5-hydroxy-6-methylpyrimidine-4-carbonyl)piperazin-1-yl)-7-oxo-[1,2,4]triazolo[1,5-a]pyrimidin-4(7H)-yl)-N-(2-chloro-4-(trifluoromethyl)phenyl)acetamide], for which the IC50 with SW48 cells, in the test on RL95-2 cells and at recombinant human WRN was 1 to 100 nM each time.

Turning to `CCc1c(N2CCN(C(=O)c3ncccc3O)CC2)c(=O)n2nc(C3=CC4CC(OC)CC4C3)nc2n1CC(=O)Nc1ccc(C(F)(F)F)cc1Cl` (stereo not drawn) [Example 186, N-(2-chloro-4-(trifluoromethyl)phenyl)-2-(5-ethyl-6-(4-(3-hydroxypicolinoyl)piperazin-1-yl)-2-(5-methoxy-1,3a,4,5,6,6a-hexahydropentalen-2-yl)-7-oxo-[1,2,4]triazolo[1,5-a]pyrimidin-4(7H)-yl)acetamide], the IC50 with SW48 cells, in the test with RL95-2 cells and at recombinant human WRN was 1 to 100 nM in each case.

On to `CCc1c(N2CCN(C(=O)c3ncnc(C)c3O)CC2)c(=O)n2nc(-c3cnc4c(c3)CCO4)nc2n1CC(=O)Nc1ccc(C(F)(F)F)cc1Cl` [Example 162, N-(2-chloro-4-(trifluoromethyl)phenyl)-2-(2-(2,3-dihydrofuro[2,3-b]pyridin-5-yl)-5-ethyl-6-(4-(5-hydroxy-6-methylpyrimidine-4-carbonyl)piperazin-1-yl)-7-oxo-[1,2,4]triazolo[1,5-a]pyrimidin-4 (7H)-yl)acetamide], for which the IC50 in the test with SW48 cells, in the test with RL95-2 cells and on recombinant human WRN was 1 to 100 nM each time.

As for `CCc1c(N2CCN(C(=O)c3ncnc(C)c3O)CC2)c(=O)n2nc(-c3cnc4[nH]ccc4c3)nc2n1CC(=O)Nc1ccc(C(F)(F)F)cc1Cl` [Example 101, N-(2-chloro-4-(trifluoromethyl)phenyl)-2-(5-ethyl-6-(4-(5-hydroxy-6-methylpyrimidine-4-carbonyl)piperazin-1-yl)-7-oxo-2-(1H-pyrrolo[2,3-b]pyridin-5-yl)-[1,2,4]triazolo[1,5-a]pyrimidin-4(7H) -yl)acetamide], the values for the IC50 in the test on SW48 cells, in the test with RL95-2 cells and on recombinant human WRN were 1 to 100 nM, 1 to 100 nM and less than 1 nM, respectively.

Turning to `CCc1c(N2CCN(C(=O)c3ncnc(C)c3O)CC2)c(=O)n2nc(C3=CC4CCC3C4)nc2n1CC(=O)Nc1ccc(S(F)(F)(F)(F)F)cc1` (stereo not drawn) [Example 118, 2-(2-(bicyclo[2.2.1]hept-2-en-2-yl)-5-ethyl-6-(4-(5-hydroxy-6-methylpyrimidine-4-carbonyl)piperazin-1-yl)-7-oxo-[1,2,4]triazolo[1,5-a]pyrimidin-4(7H)-yl)-N-(4-(pentafluoro-λ^6-sulfaneyl)phenyl)acetamide], the IC50 with SW48 cells, in the test on RL95-2 cells and on recombinant human WRN was 1 to 100 nM throughout.

Consider `CCc1c(N2CCN(C(=O)c3ncnc(C)c3O)CC2)c(=O)n2nc(-c3ccc4ccsc4c3)nc2n1CC(=O)Nc1ccc(C(F)(F)F)cc1Cl` [Example 55, 2-(2-(benzo[b]thiophen-6-yl)-5-ethyl-6-(4-(5-hydroxy-6-methylpyrimidine-4-carbonyl)piperazin-1-yl)-7-oxo-[1,2,4]triazolo[1,5-a]pyrimidin-4(7H)-yl)-N-(2-chloro-4-(trifluoromethyl)phenyl)acet amide], for which the IC50 in the test on SW48 cells, in the test with RL95-2 cells and at recombinant human WRN was 1 to 100 nM each time.

Regarding `CCc1c(N2CCN(C(=O)c3ncccc3O)CC2)c(=O)n2nc(C3=CC4CC(C)(O)CC4C3)nc2n1CC(=O)Nc1ccc(C(F)(F)F)cc1Cl` (stereo not drawn) [Example 164, N-(2-chloro-4-(trifluoromethyl)phenyl)-2-(5-ethyl-2-(5-hydroxy-5-methyl-1,3a,4,5,6,6a-hexahydropentalen-2-yl)-6-(4-(3-hydroxypicolinoyl)piperazin-1-yl)-7-oxo-[1,2,4]triazolo[1,5-a]pyrimidin-4(7H)-yl)acetamide], the IC50 with SW48 cells, in the test on RL95-2 cells and at recombinant human WRN was 1 to 100 nM in each case.

For `CCc1c(N2CCN(C(=O)c3ncnc(C)c3O)CC2)c(=O)n2nc(C3=CC4COCC4C3)nc2n1CC(=O)Nc1ccc(C(F)(F)F)cc1Cl` (stereo not drawn) [Example 161, N-(2-chloro-4-(trifluoromethyl)phenyl)-2-(5-ethyl-6-(4-(5-hydroxy-6-methylpyrimidine-4-carbonyl)piperazin-1-yl)-7-oxo-2-(3,3a,4,6a-tetrahydro-1H-cyclopenta[c]furan-5-yl)-[1,2,4]triazolo[1,5-a]pyrimidin-4(7H)-yl)acetamide], the IC50 in the test on SW48 cells, in the test with RL95-2 cells and on recombinant human WRN was 1 to 100 nM each time.
